“And” between values parts separate entries of the source, which are not always exact repeats. Equal entries are not always repeated. “Also recorded” adds a separate entry of the source.
What was measured:
[1] = liver microsome clearance, human; format: in vitro ADME; conditions: human liver microsomes
[2] = liver microsome clearance, rat; format: in vitro ADME; conditions: rat liver microsomes
[3] = liver microsome clearance, mouse; format: in vitro ADME; conditions: mouse liver microsomes
[4] = plasma protein binding, equilibrium dialysis, human; format: in vitro ADME
[5] = plasma protein binding, equilibrium dialysis, rat; format: in vitro ADME
[6] = plasma protein binding, equilibrium dialysis, mouse; format: in vitro ADME
[7] = tested on: WSU-DLCL2 cells; assay: predicted efficacious plasma exposure; conditions: human; plasma protein binding corrected LCC
[8] = single dose oral PK in SCID mice; format: in vivo
[9] = 7-day BID PK study, plasma exposure and tolerability; format: in vivo, mouse
[10] = tested on: H3K27 methylation in bone marrow; assay: 7-day BID PD, H3K27 methylation in bone marrow; format: in vivo, mouse; conditions: 500 mg/kg BID, end of day 7
[11] = rat oral PK of D-tartrate salt; format: in vivo; conditions: for time above LCC: p.o., D-tartrate salt; for AUC(0-inf) / Cmax / Tmax: plasma, po
[12] = tested on: subcutaneous EZH2 mutant KARPAS-422 human DLBCL xenografts; assay: KARPAS-422 xenograft antitumor activity; format: in vivo, SCID mice; conditions: 250 and 500 mg/kg BID orally, 21 days
[13] = tested on: H3K27 methyl mark in tumor tissue; assay: PD in KARPAS-422 tumor samples, H3K27 methyl mark; format: in vivo, SCID mice; conditions: day 7, 250 and 500 mg/kg, over the 12 h time-course
[14] = plasma exposure in the KARPAS-422 xenograft study; format: in vivo, SCID mice; conditions: 250 mg/kg BID, D-tartrate salt, day 7
[15] = tested on: WSU-DLCL2 cells; assay: 11-day proliferation assay, LCC; conditions: n = 4
[16] = tested on: H3K27me3 in WSU-DLCL2 cells; assay: ELISA of cellular H3K27me3 methyl mark reduction; conditions: read-out: ELISA H3K27me3 IC50; WSU-DLCL2 (Y641F mutant-bearing) cells; n = 20

Q: Which “percent hepatic extraction (%Eh)” value [1] does the source give for CCN(c1cc(C#CCN2CCOCC2)cc(C(=O)NCc2c(C)cc(C)[nH]c2=O)c1C)[C@H]1CC[C@H](N(C)CCOC)CC1 [EPZ011989, N-((4,6-Dimethyl-2-oxo-1,2-dihydropyridin-3-yl)methyl)-3-(ethyl((trans)-4-((2-methoxyethyl)(methyl)amino)cyclohexyl)amino)-2-methyl-5-(3-morpholinoprop-1-yn-1-yl)benzamide] here?
A: 29%

Q: And the “percent hepatic extraction (%Eh)” value [2]?
A: < 14%

Q: What about the “percent hepatic extraction (%Eh)” value [3] of the same compound?
A: < 11%

Q: What about the fraction unbound [4] of the same compound?
A: 0.97 ± 0.03

Q: What about the fraction unbound [5] of the same compound?
A: 0.91 ± 0.06

Q: And the fraction unbound [6]?
A: 0.8 ± 0.11

Q: And the “predicted efficacious plasma exposure” value [7]?
A: 214 nM and 130 ng/mL

Q: And the “coverage over the LCC (time)” value ([8]; single oral dose 250 mg/kg)?
A: approximately 8 h

Q: And the “coverage over the LCC (time)” value ([8]; single oral dose 500 mg/kg)?
A: approximately 8 h

Q: And the “dose that achieves complete coverage over the predicted efficacious plasma level” value ([9]; 7-day BID study)?
A: 500 mg/kg BID

Q: What about the tolerability ([9]; 125, 250, 500, 750 and 1000 mg/kg BID, 7 days) of the same compound?
A: well tolerated

Q: And the “H3K27 methyl mark in bone marrow” value [10]?
A: complete ablation of the methyl mark

Q: What about the “time above LCC” value ([11]; 30 mg/kg) of the same compound?
A: 4 h

Q: What about the “time above LCC” value ([11]; 100 mg/kg) of the same compound?
A: 8 h

Q: And the AUC(0-inf) ([11]; 30 mg/kg)?
A: 970 ng·h/mL

Q: And the Cmax ([11]; 30 mg/kg)?
A: 240 ng/mL

Q: And the Tmax ([11]; 30 mg/kg)?
A: 2 h

Q: What about the AUC(0-inf) ([11]; 100 mg/kg) of the same compound?
A: 5600 ng·h/mL

Q: And the Cmax ([11]; 100 mg/kg)?
A: 1600 ng/mL

Q: And the Tmax ([11]; 100 mg/kg)?
A: 2.7 h

Q: And the AUC(0-inf) ([11]; 300 mg/kg)?
A: 10000 ng·h/mL

Q: What about the Cmax ([11]; 300 mg/kg) of the same compound?
A: 2900 ng/mL

Q: What about the Tmax ([11]; 300 mg/kg) of the same compound?
A: 2.7 h

Q: And the “effect on mean body weights” value [12]?
A: nominal effect on mean body weights

Q: What about the antitumor activity ([12]; D-tartrate salt, SCID mice) of the same compound?
A: significant tumor regression at both doses; also recorded: Robust tumor growth inhibition

Q: What about the “H3K27 methyl mark in tumor samples” value [13] of the same compound?
A: robust H3K27 methyl mark reduction

Q: What about the “time over the predicted efficacious plasma levels” value [14] of the same compound?
A: ≥ 6 h

Q: What about the “LCC (lowest cytotoxic concentration), 11d proliferation WSU-DLCL2” value [15] of the same compound?
A: 208 nM and 208 ± 75 (n = 4) nM

Q: What about the IC50 [16] of the same compound?
A: 94 ± 48 nM
